Experimental data from paper PMC7525151 (Frontiers in Microbiology, 2020).

Experiments:
CmFUM = target: T1, CmFUM (Cyanidioschyzon merolae, UniProt M1VAI8); assay: A240 absorbance, Michaelis-Menten fit; format: biochemical; details: fumarate hydration; 100 mM Tris-HCl pH 7.5; 52 °C
T1 construct: gene CYME_CMD058C; N-terminal GST tag (pGEX6P-1, BamHI-XhoI) kept; codon-optimized synthetic gene; E. coli BL21(DE3); glutathione-Sepharose purified

TeFum [1] = target: T2, TeFum (Thermosynechococcus vestitus, UniProt Q8DIP7); assay: A240 absorbance, Michaelis-Menten fit; format: biochemical; design: gene fumC; N-terminal GST tag (pGEX6P-1, BamHI-XhoI) kept; codon-optimized synthetic gene; E. coli BL21(DE3); glutathione-Sepharose purified; details: fumarate hydration; 100 mM Tris-HCl pH 7.0; 50 °C
TeFum [2] = target: T2, TeFum; assay: relative activity with effector, A240 absorbance; design: gene fumC; details: activator in the fumarate direction; 0.14 mM fumarate, pH 7.0, 50 °C; sodium salt

T2 sequence (Q8DIP7 whole entry): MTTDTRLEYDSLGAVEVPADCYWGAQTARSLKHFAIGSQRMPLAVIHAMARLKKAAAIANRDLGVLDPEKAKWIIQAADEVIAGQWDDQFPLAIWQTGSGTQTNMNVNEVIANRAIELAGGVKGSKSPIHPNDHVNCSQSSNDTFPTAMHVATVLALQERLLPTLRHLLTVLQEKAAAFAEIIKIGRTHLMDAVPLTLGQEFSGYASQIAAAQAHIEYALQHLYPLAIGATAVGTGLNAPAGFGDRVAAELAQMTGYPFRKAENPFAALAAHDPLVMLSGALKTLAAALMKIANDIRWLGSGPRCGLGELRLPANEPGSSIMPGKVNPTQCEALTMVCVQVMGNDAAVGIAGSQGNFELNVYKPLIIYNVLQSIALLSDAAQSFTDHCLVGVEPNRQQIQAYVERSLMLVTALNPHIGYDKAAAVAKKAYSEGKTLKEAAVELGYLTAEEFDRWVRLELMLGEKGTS
T1 sequence (M1VAI8 1-553): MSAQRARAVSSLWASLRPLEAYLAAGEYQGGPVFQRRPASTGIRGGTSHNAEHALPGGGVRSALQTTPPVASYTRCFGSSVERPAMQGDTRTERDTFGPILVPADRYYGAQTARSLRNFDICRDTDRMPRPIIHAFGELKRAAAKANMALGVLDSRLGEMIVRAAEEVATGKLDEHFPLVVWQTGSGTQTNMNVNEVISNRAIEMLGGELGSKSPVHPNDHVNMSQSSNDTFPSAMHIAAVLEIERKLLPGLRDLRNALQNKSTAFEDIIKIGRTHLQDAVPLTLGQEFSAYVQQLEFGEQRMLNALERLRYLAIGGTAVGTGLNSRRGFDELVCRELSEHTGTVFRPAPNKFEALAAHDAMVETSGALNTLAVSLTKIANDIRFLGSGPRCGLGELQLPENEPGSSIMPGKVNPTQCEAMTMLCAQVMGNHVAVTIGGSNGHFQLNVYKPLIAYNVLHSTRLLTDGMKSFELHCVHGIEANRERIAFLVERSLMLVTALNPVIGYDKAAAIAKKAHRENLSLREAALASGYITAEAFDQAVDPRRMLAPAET

Km (CmFUM) [µM]	Km (TeFum [1]) [µM]	Compound	relative activity (TeFum [2])
270 ± 50	140 ± 20	O=C(O)/C=C/C(=O)O [fumarate]	
		CC(=O)C(=O)O [pyruvate]	pyruvate increased the TeFum activity for fumarate (Figure 4B).
